Assay results published in BindingDB's records for patent US20250340565 (AdoRx Therapeutics, 2025).

Target: T1, 5'-nucleotidase [27-547] (UniProt P21589)
T1 construct: 27-547
T1 sequence (P21589 whole entry): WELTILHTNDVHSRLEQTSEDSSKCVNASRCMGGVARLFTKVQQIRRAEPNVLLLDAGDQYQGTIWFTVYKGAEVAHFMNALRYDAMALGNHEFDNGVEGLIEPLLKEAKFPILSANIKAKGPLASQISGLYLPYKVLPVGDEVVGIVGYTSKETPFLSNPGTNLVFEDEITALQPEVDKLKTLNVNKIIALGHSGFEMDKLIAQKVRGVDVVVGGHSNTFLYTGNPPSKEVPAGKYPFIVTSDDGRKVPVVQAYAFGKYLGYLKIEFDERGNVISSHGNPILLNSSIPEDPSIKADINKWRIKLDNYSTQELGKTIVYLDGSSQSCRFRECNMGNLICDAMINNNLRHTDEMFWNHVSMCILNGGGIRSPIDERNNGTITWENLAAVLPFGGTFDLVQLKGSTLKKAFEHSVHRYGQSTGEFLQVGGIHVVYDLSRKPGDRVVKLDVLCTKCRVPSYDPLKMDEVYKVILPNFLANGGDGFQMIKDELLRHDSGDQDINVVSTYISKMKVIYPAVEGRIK
Assay: CD73 Inhibition Assay
Protocol: Compound inhibition of human (h)CD73 (amino acids Trp27-Lys547, R&D Systems 5795-EN-500) enzymatic activity was tested via the Malachite Green Phosphate Detection Kit (R&D DY996). Experiments were performed in 20 μL Tris buffer (25 mM Tris pH 7.5, 5 mM MgCl2, 0.002% Tween20), with 250 pM of hCD73. Test compounds of interest were prepared in a threefold serial dilution in DMSO and added to the assay to give the appropriate final concentration, with the assay DMSO concentration being 1%. Compounds were pre-incubated for 20 minutes with hCD73 in a 384 well clear plate (Greiner 781101), followed by the addition of adenosine monophosphate (AMP) to 12.5 μM. The enzymatic reaction was carried out for 20 min at room temperature. 5 μL of Malachite kit reagent A was added to stop the reaction (contains 3M H2SO4) and after 10 min, 5 μL of Malachite kit reagent B was added (Malachite Green). After 30 min, absorbance at 620 nm was read on a BMG Pherastar FSX.

- IC50: 898 nM
Compound: O=c1[nH]cc(-n2cc3c(N4C[C@@H]5COC[C@H]5C4)ncnc3n2)c(=O)[nH]1 [US20250340565, Example 13.10]
